According to patent US7601489B2, “Manganese ion regulation of reverse transcriptase activity and methods of modulating same” (The Johns Hopkins University, priority 2002, dated 2009):
Changes are numbered by the printed parent chain.

Legend:
Ty1 VLPs = Ty1 VLPs (Saccharomyces cerevisiae, UniProt P47098)
Method: (§1) VLP isolation and analysis. Yeast cells harboring pGTy1-H3-mhis3AI were grown in 2% galactose at 22° C. for approximately 24 hr. Cell pellets from these 0.5 L cultures were resuspended in 5 ml buffer B (Eichinger and Boeke, Cell 54: 955-966, 1988, which is incorporated herein by reference) and VLPs were isolated. […] Reactions were set up on ice, carried out for 1 hr at 22° C. and kept on ice while being spotted onto DE81 anion-exchange paper (Whatman International Ltd.; Maidstone, England).

D211N Ty1 RT = biological target: T1, D211N Ty1 RT (Saccharomyces cerevisiae, UniProt P47098, D1428N); test: RT assay on purified RT, metal ion competition and metal activation kinetics
T1 sequence (P47098 1218-1755 D1428N): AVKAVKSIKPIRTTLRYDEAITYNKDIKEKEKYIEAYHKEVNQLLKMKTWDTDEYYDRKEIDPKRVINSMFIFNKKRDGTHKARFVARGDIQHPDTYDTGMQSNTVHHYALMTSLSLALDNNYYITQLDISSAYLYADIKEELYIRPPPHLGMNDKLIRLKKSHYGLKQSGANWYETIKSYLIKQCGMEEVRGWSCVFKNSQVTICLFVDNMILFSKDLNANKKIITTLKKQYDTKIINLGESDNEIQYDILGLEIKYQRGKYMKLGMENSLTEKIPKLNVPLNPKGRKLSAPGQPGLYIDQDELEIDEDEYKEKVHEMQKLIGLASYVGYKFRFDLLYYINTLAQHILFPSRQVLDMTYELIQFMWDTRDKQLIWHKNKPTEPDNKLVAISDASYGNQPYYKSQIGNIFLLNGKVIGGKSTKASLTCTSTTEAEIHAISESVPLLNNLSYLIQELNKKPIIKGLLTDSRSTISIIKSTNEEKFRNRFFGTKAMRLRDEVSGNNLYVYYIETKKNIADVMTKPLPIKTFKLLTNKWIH
Description: Plasmid constructions. Plasmid c24-2I was generated by ligating the Stu I -Avr II fragment (4.3 kb) of c24-2 with the Sma I—Xba I fragment (6.0 kb) of pRS415 (LEU2 CEN6; Sikorski and Hieter, Genetics 122: 19-27, 1989, which is incorporated herein by reference). To simplify the cloning of the single amino-acid-substitution mutations into the PMR1 gene, c24-2L was constructed by removing the Xho I—Nde I fragment (1.2 kb) from c24-2I, filling in the ends with Klenow (New England Biolabs; Beverly Mass.), and ligating the blunt ends to recircularize the plasmid. Alanine substitution mutations, D778A and Q783A, were generated in the native PMR1 gene by replacing the Pst I—Sal I fragment (1.1 kb) of c24-2L with the corresponding fragment harboring the respective Pmr1p substitution mutation in the YEpHR1 backbone (Wei et al., J. Biol. Chem. 275: 23927-23932, 2000, which is incorporated herein by reference). The D53A substitution mutation was introduced into c24-2L by swapping in the Xba I fragment (0.3 kb) containing the Pmr1p substitution mutation in the YEpHR1 backbone (Wei et al., supra, 1999). Recombinant Ty1 RT (Wilhelm et al., supra, 2000) was PCR amplified and subcloned into the BamH I and Xho I sites of pGEX-4T-3 (Amersham Pharmacia Biotech; Piscataway N.J.). The D211N substitution mutation was generated by replacing the Sph I-Hind III fragment (0.4 kb) of the wild-type Ty1 RT expression construct with that of pJEF724 DD-DN (Uzun and Gabriel, supra, 2001).
as §1
(§2) Protein purification and analysis. Recombinant Ty1 RT (Wilhelm et al., supra, 2000) containing a cleavable N-terminal GST-tag was expressed in E. coli and purified first by affinity chromatography and then by ion exchange chromatography, as described for HIV-1 RT (Le Grice et al., Meth. Enzymol. 262: 130-44, 1995, which is incorporated herein by reference). The GST-tagged protein was eluted from a Glutathione Sepharose 4B™ gel (Amersham) gravity column with buffer (50 mM HEPES-KOH, pH 7.8, 200 mM KCl, 10% glycerol and 2 mM DTT) containing 30 mM reduced glutathione. 50 mM HEPES-KOH, pH 7.0 with 10% glycerol was added to the protein solution to lower the pH to 7.1 and the KCl concentration to 25 mM. The recombinant Ty1 RT was further purified over a Resource S™ (Amersham) cation-exchange column using a linear KCl gradient (25-500 mM). […] Purified hetero-dimeric HIV-1 RT (Le Grice et al., supra, 1995) was acquired through the AIDS Research and Reference Reagent Program, Division of AIDS, NIAID, NIH. Purified AMV RT was purchased from Roche Molecular Biochemicals (Mannheim, Germany). The RT assays performed on the purified RTs were carried out as described above, except in the presence of 20 mM KCl, and HIV-1 RT assays were incubated at 37° C. Each reaction contained 45 ng of purified recombinant Ty1 RT or 30 ng of heterodimeric HIV-1 RT.

wild-type Ty1 RT = biological target: T2, wild-type Ty1 RT (Saccharomyces cerevisiae, UniProt P47098); test: biochemical
T2 sequence (P47098 1218-1755 limits assumed): T1 sequence (P47098 1218-1755 D1428N) with N211D
Method: as §1, §2

hetero-dimeric HIV-1 RT = hetero-dimeric HIV-1 RT (Human immunodeficiency virus type 1 group M subtype B, UniProt P04585); conditions: purified hetero-dimeric HIV-1 RT; poly(rC) template; excess Mg^2+; 37° C.
Method: as §1, §2

AMV RT = conditions: purified AMV RT; excess Mg^2+
Method: as §1, §2

M-MuLV RT = conditions: purified M-MuLV RT, with or without its associated RNase H
Method: as §1, §2

Ty1 RT [1] = biological target: T3, Ty1 RT (Saccharomyces cerevisiae, UniProt P47098); conditions: for Proposed activity of Ty1 RT, same metal at A site and B site: same ion at A site and B site
T3 sequence (P47098 1218-1755 limits assumed): T1 sequence (P47098 1218-1755 D1428N) with N211D

Ty1 RT [2] = biological target: Ty1 RT (Saccharomyces cerevisiae, UniProt P47098, D1428N); conditions: Mn^2+ at A site, Mg^2+ at B site; unlikely for Wt.
[3] = D211N Ty1 RT, fit to Hill equation
[4] = Wt. Ty1 RT, fit to Hill equation

Chain of Ty1 VLPs (P47098 1218-1755 limits assumed): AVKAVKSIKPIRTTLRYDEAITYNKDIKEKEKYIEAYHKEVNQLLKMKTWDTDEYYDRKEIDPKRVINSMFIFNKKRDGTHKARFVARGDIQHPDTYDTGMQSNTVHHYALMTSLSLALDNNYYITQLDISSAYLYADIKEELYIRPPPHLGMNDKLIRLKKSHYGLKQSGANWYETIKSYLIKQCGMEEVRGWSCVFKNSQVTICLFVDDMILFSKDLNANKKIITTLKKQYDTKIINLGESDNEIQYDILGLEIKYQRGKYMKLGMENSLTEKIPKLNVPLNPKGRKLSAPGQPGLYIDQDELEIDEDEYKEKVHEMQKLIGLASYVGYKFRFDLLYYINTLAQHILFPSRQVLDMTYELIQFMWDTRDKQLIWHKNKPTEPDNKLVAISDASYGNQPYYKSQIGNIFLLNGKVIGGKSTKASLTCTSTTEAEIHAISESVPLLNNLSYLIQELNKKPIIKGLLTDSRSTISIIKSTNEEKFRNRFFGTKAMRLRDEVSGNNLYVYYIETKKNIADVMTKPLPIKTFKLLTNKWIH
Chain of Ty1 RT (Saccharomyces cerevisiae, UniProt P47098, D1428N) (P47098 1103-1755 D1428N): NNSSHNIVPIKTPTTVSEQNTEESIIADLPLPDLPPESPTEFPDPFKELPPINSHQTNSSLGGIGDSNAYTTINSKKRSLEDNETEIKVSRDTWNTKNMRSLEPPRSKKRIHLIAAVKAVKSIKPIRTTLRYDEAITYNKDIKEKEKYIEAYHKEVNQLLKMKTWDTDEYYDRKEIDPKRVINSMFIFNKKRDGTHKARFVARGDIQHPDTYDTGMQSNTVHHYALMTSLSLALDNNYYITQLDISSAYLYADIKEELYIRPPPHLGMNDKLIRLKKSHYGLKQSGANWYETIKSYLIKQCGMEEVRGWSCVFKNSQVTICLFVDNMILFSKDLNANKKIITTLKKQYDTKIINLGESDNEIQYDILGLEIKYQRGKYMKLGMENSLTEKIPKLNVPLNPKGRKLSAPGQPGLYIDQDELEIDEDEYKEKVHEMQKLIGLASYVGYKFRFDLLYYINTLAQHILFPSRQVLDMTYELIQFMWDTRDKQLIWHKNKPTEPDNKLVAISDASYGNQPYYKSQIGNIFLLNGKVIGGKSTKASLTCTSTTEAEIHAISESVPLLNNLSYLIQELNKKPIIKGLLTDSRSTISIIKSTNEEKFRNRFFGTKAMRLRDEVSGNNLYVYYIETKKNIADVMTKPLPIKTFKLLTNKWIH

Compound	Kd (D211N Ty1 RT)	Proposed divalent cation binding affinity, A site (D211N Ty1 RT; D211N Ty1 RT)	Proposed divalent cation binding affinity, B site (D211N Ty1 RT; D211N Ty1 RT)	n (Hill coefficient) of metal activation (D211N Ty1 RT; [3])	Kd (wild-type Ty1 RT)	Proposed divalent cation binding affinity, A site (wild-type Ty1 RT; Wt. Ty1 RT)	Proposed divalent cation binding affinity, B site (wild-type Ty1 RT; Wt. Ty1 RT)	n (Hill coefficient) of metal activation (wild-type Ty1 RT; [4])	Proposed activity of Ty1 RT, same metal at A site and B site (Ty1 RT [1])	other results
[Mn+2] [Mn^2+, MnCl2]	0.02 ± 0.003 mM	very high affinity for Mn^2+	high affinity for Mn^2+	2.1 ± 0.1	19.9 ± 1.6 mM	very low affinity for Mn^2+	high affinity for Mn^2+	2.3 ± 0.2	low	Ratio of Mn^2+ to Mg^2+ that reduced RT activity by 50% (Ty1 VLPs; RNA-directed DNA polymerization, poly(rC) template, excess Mg^2+): 8×10^−3; Mn^2+-dependent inhibition with DNA template (Ty1 VLPs; poly(dC) substituted for poly(rC)): Mn^2+-dependent inhibition was also observed; Ratio (Mn^2+ concentration to Mg^2+ concentration) at which the increase in activity peaks (D211N Ty1 RT; D211N RT, Mn^2+ added in presence of Mg^2+): 0.02; kcat of metal activation (D211N Ty1 RT; [3]): 0.000158 ± 8.3e-06 s⁻¹; Inhibition by increasing concentrations of Mn2+ (D211N Ty1 RT; D211N Ty1 RT, printed: in the presence of excess Mn^2+ (FIG. 4D)): not inhibited; kcat of metal activation (wild-type Ty1 RT; [4]): 0.000156 ± 1.9e-05 s⁻¹; Mn^2+-dependent inhibition with DNA template (wild-type Ty1 RT; purified recombinant Ty1 RT, poly(dC) substituted for poly(rC)): Mn^2+-dependent inhibition was also observed; Ratio of Mn^2+ to Mg^2+ that reduced RT activity by 50% (wild-type Ty1 RT; purified recombinant Ty1 RT, poly(rC) template, excess Mg^2+): 1×10^−3; Ratio of Mn^2+ to Mg^2+ that reduced RT activity by 50% (hetero-dimeric HIV-1 RT): 7×10^−4; Mn^2+-dependent inhibition of RT activity (AMV RT): Even more dramatic Mn^2+-dependent inhibition; Effect of Mn^2+ on RT activity (M-MuLV RT): Increased activity at low Mn^2+ concentrations; Proposed activity of Ty1 RT, Mg^2+ at A site and Mn^2+ at B site (Ty1 RT [1]; Mn^2+ at B site, Mg^2+ at A site, unlikely for D211N): low; Proposed activity of Ty1 RT, Mn^2+ at A site and Mg^2+ at B site (Ty1 RT [2]): high
[Mg+2] [Mg^2+, MgCl2]	6.3 ± 0.2 mM	very low affinity for Mg^2+	low affinity for Mg^2+	2.1 ± 0.1	0.13 ± 0.04 mM	very high affinity for Mg^2+	low affinity for Mg^2+	1.7 ± 0.1	high	
[Ca+2].[Cl-].[Cl-] [Ca^2+, CaCl2, reference compound]										Inhibition of Ty1 RT in control competition experiment (wild-type Ty1 RT; Ca^2+ substituted for Mn^2+, in presence of Mg^2+ (FIG. 4C)): no significant inhibition
